In data set [1] the target is T1, glycine recognition site of the NMDA receptor complex (Rattus norvegicus, UniProt P35439).
T1 construct: The telencephalon (cerebral cortex, hippocampus, and striatum) was dissected and homogenized; from tissue; host or cells: rat telencephalon membranes (cerebral cortex, hippocampus, striatum), Triton X-100 treated
As to the kind of experiment: [3H]5,7-DCKA binding assay. The settings on record: rat cortical membranes; none = no displacement at 100 μM. On the procedure:
General receptor-binding procedures. Male Sprague-Dawley rats were decapitated and their brains removed rapidly. The telencephalon (cerebral cortex, hippocampus, and striatum) was dissected and homogenized in 20 volumes of ice-cold 0.32 M sucrose, 20 mM HEPES-KOH (pH 7.2 at room temperature) containing protease inhibitors ([…], 5 mg/mL antipain, 20 mg/mL soybean trypsin inhibitor, 500 μM benzamidine, […] aprotinin, and 500 μM phenylmethylsulfonyl fluoride) with a motor driven glass-TEFLON® fluorocarbon homogenizer (8-10 strokes at setting 1). The homogenate was centrifuged at 800 g for 10 minutes. The pellet was discarded and the supernatant was centrifuged at 20,000 g for 20 minutes. The resulting pellet was resuspended in 20 volumes of distilled water containing 500 μM benzamidine and centrifuged for 20 minutes at 7500 g. Then the supernatant and buffy coat were centrifuged three times (51,500 g for 20 minutes) in the presence of distilled water containing 500 μM benzamidine. All centrifugation steps were carried out at 4° C. The final pellet was frozen rapidly at −80° C.
On the day of the assay, the pelleted membranes were resuspended in 20 volumes of 50 mM HEPES-KOH buffer, pH 7.4, and incubated for 20 minutes at 37° C. followed by centrifugation (51,500 g for 20 minutes). Membranes were then resuspended in 50 mM HEPES-KOH buffer (pH 7.8) containing 0.08% Triton X-100. After stirring for 30 minutes at 4° C., the membranes were pelleted by centrifugation (100,000 g for 20 minutes). The membranes were then washed twice by resuspension in the buffer appropriate for the binding assay and centrifugation (100,000 g for 20 minutes). The final pellet was suspended in assay buffer. The amount of protein in the final membrane preparation was determined with the bicinchoninic acid method (BCA; Pierce Chemical Co., Rockford, Ill.). The final protein concentration used for our studies was 300 to 600 μg/mL. Receptor-binding protocols described below were adapted from published procedures. For all assays, the samples, all in duplicate or triplicate, were placed into scintillation vials containing 5.5 mL of scintillation liquid (Ultima Gold; Packard Instrument Co., Inc., Meriden, Conn.) and the retained radioactivity was determined by conventional scintillation spectroscopy with a Beckman TA-6000 scintillation counter. Radio-ligands were purchased from DuPont-NEN (Boston, Mass.).
[^3H]5,7-Dichlorokynurenic acid (5,7-DCKA)-binding assay. The glycine recognition site of the NMDA receptor complex was labeled with the competitive antagonist [^3H]5,7-dichlorokynurenic acid (5,7-DCKA). […]
Data Analysis. The data were analyzed with SigmaPlot 5.0 and SigmaStat 2.0 (Jandel Scientific, Corte Madera, Calif.) software. […]

The target in data set [2] is voltage sensitive sodium channel (neurotoxin receptor Site 2). Kind of data set: [3H]BTX binding assay. The settings on record: rat cortical synaptosomes.
The next data set addresses T2, CB1 receptor (Homo sapiens, UniProt P21554).
T2 construct: expressed in transfected cells; host or cells: HEK293 cells (ATCC), calcium phosphate transfection
Kind of data set: cAMP accumulation in HEK293 cells transfected with AC5, D1AR, CB1R. In kind it is cell-based. On the procedure: HEK293 cells were obtained from American Type Culture Collection (Manassas, Va.). Cells were cultured in 225 mL flasks containing 39 mL of MEM containing 10% fetal bovine serum, penicillin (50 μg/mL), streptomycin (50 μg/mL), and neomycin (100 μg/mL). The flasks were maintained in a humidified atmosphere of 95% air and 5% CO2 at about 37° C. Transfection was performed by the method of DNA precipitation with calcium phosphate 1 day after HEK 293 cells were transferred to small flasks (75 mL) at the density of approximately 60 to 80% confluence. Plasmid DNA containing AC5 or AC7 cDNA (11.5 μg), plasmid DNA carrying the human D1A dopamine receptor cDNA (3 μg) and CB1 receptor cDNA (3 μg), and pCMS-EGFP (1 μg) were used for each small flask, which also contained 13 mL of the culture medium. The amount of DNA per flask was adjusted to a total of 26 μg using vector DNA. Transfection efficiency was routinely monitored by observing the expression of enhanced green fluorescent protein (GFP) by an epifluorescence microscope equipped with a filter set (excitation, 480/40 nm; emission, 535/50 nm) and a dichroic mirror (T89002bs; Chroma Technology, Rockingham, Vt.). After transfection, cells were harvested and transferred into 24-well culture plates. The transfected cells were cultured for 1 to 2 days before the cAMP accumulation experiments were carried out.
After labeling and intracellular ATP pool with 3.0 μCi/mL of [2,8-^3H]adenine, cells were incubated in DMEM (0.5 mL/well) without phenol red, buffered to pH 7.1 with 20 mM of 4-(2-hydroxyethyl)-1-piperazineethanesulfonic acid (HEPES) for 30 minutes at 37° C.
To determine the effect of the DCUK-OEt or other compounds on the function of the CB1 receptor, the cells were treated with the phosphodiesterase inhibitor, IBMX (500 μM), for 10 minutes at 37° C., followed by the addition of D1A receptor agonist, dopamine (DA) (1 μM), in the presence of a known CB1 agonist or agonist, plus a CB1 antagonist for 5 minutes. The following agonist and antagonist were used: CB1 receptor agonist, ACEA (10 μM); CB1 receptor antagonist, AM251 (10 μM). In additional reactions, the addition of DA was accompanied by addition of DCUK-OEt (10 μM) or DCUK-OEt together with AM251 (10 μM). In a final set of reactions DCUK-OEt was added with ACEA (10 μM), to assess whether DCUK-OEt acted like a CB1 receptor antagonist. The reactions were terminated by adding 50 μL of 100% (w/v) tricholoroacetic acid. ATP and cAMP were separated through Dowex 50 and neutral alumina columns as is known in the art, and quantified by liquid scintillation counting. [α-^32P]ATP and 8-[^14C]cAMP were added as internal standards to monitor the recovery of ATP and cAMP through column chromatography. Conversion of [^3H] ATP into [^3H]cAMP was calculated as follows: [^3H]cAMP (%)=[^3H]cAMP (cpm)/([^3H]ATP (cpm)+[^3H]cAMP (cpm))·100. [^3H]cAMP (%) values obtained from cells which underwent only the 10-minute IBMX incubation period before the addition of trichloroacetic acid, were used as blanks and these values were subtracted from the values obtained from cells which underwent the 1-minute incubation period with DA in the presence or absence of other agonists/antagonists. Each condition was assayed in triplicate and the whole experimental procedure was repeated 4 times. The ratio of cAMP accumulation was calculated for all treatment groups versus DA treatment group (100%) and the values were averaged among the four batches of experiments.

Data set [3] deals with rat brain type IIA Na+ channel (Nav1.2) (Rattus norvegicus, UniProt P04775). As to the kind of experiment: Whole-cell patch clamp recordings of Na+ currents in CNaIIA-1 cells. In kind it is cell-based.
For a further data set, the system named is DBA/2 mice. Kind of data set: Audiogenic seizures. In kind it is in vivo, mouse. The following applies: i.p., 100 and 500 mg/kg. On the procedure:
Audiogenic Seizures. Male DBA/2J mice (20-22 days old; 8-12 g) were used to evaluate the effects of DCUK-OMe in an animal model of partial seizures. Mice were dosed (i.p.) with vehicle (5% TWEEN 80/0.5% methylcellulose), 100 mg/kg DCUK-OMe, or 500 mg/kg DCUK-OMe, 30 minutes before noise stimulation. Mice were placed into a cylindrical Plexiglas testing chamber (15×50 cm, diameter 3 height) enclosed in a sound-attenuated box. After a 15- to 20-second habituation period, a high-intensity auditory stimulus (ringing doorbell; 12-16 kHz, 109 db) was activated for 30 seconds or until tonic hindlimb extension occurred. The seizure response in these mice is characterized by a progression of a wild running behavior, followed by loss of righting and clonus of the forelimbs, followed by tonic hindlimb extension, and finally respiratory arrest.

Data set [4] in a line: Solubility limit in aqueous assay buffers. In kind it is physicochemical. The following applies: aqueous assay buffers (incubation or bath solutions), aqueous buffer, kinetic from dmso stock, DMSO 0.2 to 1%, read-out: concentrations that could not be tested due to limited solubility in aqueous buffers. On the procedure:
Drugs. For all in vitro assays, stock solutions of DCUKA or DCUK-OMe were prepared fresh daily in dimethylsulfoxide (DMSO) then diluted into the incubation or bath solutions with sonication to the desired concentrations for experiments. Due to their limited solubility in aqueous buffers, DCUKA concentrations >300 μM and DCUK-OMe concentrations >100 μM could not be tested. In those assays where high ionic strength buffers were used, i.e., [^3H]batrachiotoxin (BTX) binding in depolarized synaptosomes, concentrations >50 μM could not be tested. The final concentration of DMSO in the assays ranged from 0.2 to 1%. In all assays, drug effects were compared with effects measured in the presence of the identical concentration of DMSO without drug.

[5] abbreviates: none = no displacement at 100 μM, read-out: IC50 [3H]BTX binding.

pIC50, pKd, pKi: −log10 of the molar value. Where two headings read alike, the source gives them in different places. Where only a bound is given, the exact number is not on record here.

Sequence of rat brain type IIA Na+ channel (Nav1.2) (P04775 whole entry): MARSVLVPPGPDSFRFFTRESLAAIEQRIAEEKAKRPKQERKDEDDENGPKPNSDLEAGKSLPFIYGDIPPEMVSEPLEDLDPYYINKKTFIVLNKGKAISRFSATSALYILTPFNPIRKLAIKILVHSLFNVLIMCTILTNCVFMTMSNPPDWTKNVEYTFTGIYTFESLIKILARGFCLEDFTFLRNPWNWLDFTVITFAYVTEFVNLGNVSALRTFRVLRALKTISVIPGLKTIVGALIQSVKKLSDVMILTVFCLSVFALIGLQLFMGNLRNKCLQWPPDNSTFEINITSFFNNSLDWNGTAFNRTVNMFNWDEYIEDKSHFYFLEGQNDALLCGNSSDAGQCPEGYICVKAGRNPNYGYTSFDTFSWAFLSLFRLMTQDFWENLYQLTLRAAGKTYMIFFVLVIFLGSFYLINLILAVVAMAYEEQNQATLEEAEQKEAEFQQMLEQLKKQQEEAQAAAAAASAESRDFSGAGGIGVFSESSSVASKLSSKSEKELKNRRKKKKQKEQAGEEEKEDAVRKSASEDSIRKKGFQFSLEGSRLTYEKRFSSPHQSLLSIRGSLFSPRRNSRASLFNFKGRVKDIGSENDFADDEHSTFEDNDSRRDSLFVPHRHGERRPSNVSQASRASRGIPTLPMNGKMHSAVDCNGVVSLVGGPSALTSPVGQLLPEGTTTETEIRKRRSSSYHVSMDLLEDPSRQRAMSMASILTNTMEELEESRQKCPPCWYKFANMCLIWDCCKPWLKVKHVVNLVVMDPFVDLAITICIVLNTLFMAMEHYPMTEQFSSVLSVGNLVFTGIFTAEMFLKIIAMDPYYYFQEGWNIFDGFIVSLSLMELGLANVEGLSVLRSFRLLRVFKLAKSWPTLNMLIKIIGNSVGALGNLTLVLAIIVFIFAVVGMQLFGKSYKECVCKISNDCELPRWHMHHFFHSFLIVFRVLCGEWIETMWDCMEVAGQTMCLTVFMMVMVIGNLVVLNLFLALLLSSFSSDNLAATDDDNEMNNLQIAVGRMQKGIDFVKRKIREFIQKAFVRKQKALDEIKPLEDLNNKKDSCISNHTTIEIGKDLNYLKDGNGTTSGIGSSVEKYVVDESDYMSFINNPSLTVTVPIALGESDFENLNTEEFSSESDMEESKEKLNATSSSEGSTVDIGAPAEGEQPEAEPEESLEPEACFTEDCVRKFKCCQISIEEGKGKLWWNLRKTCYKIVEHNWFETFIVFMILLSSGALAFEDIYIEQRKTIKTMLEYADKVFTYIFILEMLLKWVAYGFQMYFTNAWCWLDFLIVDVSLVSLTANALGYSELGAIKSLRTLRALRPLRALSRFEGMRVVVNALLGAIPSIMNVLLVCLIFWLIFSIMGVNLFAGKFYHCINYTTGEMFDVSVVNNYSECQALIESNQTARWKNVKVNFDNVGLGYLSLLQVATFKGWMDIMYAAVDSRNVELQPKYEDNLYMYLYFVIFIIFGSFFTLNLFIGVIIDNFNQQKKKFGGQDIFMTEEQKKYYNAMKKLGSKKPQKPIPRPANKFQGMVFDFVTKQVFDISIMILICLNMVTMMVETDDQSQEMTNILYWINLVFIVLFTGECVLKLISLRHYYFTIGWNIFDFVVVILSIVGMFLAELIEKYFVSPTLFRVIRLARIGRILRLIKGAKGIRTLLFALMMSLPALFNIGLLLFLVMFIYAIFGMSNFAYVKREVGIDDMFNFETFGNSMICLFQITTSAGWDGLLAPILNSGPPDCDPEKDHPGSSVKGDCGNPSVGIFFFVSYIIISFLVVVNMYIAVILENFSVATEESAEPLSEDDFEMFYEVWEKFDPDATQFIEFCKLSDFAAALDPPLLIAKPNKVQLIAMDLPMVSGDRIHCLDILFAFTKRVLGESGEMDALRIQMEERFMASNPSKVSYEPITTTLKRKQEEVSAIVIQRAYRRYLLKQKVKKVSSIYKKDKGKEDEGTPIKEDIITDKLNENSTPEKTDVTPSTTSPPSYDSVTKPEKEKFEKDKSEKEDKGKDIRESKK
T2 sequence (P21554 whole entry): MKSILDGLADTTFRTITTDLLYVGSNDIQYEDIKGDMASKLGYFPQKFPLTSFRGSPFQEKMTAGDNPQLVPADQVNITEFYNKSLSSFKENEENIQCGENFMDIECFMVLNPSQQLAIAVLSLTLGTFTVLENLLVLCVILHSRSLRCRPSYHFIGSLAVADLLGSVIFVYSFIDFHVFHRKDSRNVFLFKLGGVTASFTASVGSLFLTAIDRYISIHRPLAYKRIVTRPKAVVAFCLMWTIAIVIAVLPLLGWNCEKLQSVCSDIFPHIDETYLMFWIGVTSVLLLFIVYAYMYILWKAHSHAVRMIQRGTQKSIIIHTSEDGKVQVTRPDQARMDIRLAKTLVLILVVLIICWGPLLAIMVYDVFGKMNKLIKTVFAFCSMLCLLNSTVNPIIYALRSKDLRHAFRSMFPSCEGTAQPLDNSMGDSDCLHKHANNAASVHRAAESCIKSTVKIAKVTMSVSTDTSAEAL

With `O=C(O)c1cc(=O)c2c(Cl)cc(Cl)cc2[nH]1` [5,7-DCKA, 5,7-dichlorokynurenic acid, reference compound], the pIC50 in data set [1] is 6.96. Also, the “IC50 [3H]BTX binding” value in data set [2] (none = no displacement at 100 μM) was “none”.
Regarding `CCCCC/C=C\C/C=C\C/C=C\C/C=C\CCCC(=O)NCCCl` [ACEA, reference compound], the “effect on DA stimulated cAMP production with AM251 added” value at CB1 receptor (AM251 10 μM) was “the effect of ACEA was reversed”. Moreover, the “effect on DA stimulated cAMP production” value on CB1 receptor (dopamine 1 μM, compound 10 μM) is listed as “reduced cAMP production”.
As for `NC(=O)N1c2ccccc2C=Cc2ccccc21` [CBZ, carbamazepine, reference compound], in data set [1], the “IC50 [3H]5,7-DCKA binding” value is reported as “none”. Moreover, the negative-log IC50 (pIC50) in data set [2] (depolarizing conditions (135 mM KCl), read-out: IC50 [3H]BTX binding under depolarizing conditions (value in parentheses)) was 4.25. For the same compound, the negative logarithm of the IC50 (pIC50) in data set [2] (setting [5]) was 4.15. In data set [3], the pKd is 3.40 and the pKi is 4.84.
With `COC(=O)c1cc(NC(=O)N(c2ccccc2)c2ccccc2)c2c(Cl)cc(Cl)cc2n1` [DCUK-OMe, N,N-diphenyl-4-ureido-5,7-dichloro-2-carboxy quinoline methyl ester], the “IC50 [3H]5,7-DCKA binding” value in data set [1] is on record as “none”. Besides, in data set [2] (setting [5]), the negative logarithm of the IC50 (pIC50) is 4.60. Besides, the “protection against audiogenic seizures” value in the data set on DBA/2 mice was “protection against audiogenic seizures”. Further, in data set [4], the solubility was over 100 µM.

For the origin of these results see patent publication US20110184018A1, “METHOD FOR TREATING PERIPHERAL NEUROPATHIC PAIN” (LOHOCLA RESEARCH CORPORATION, priority 2005, published 2011).
